Test results taken from patent publication US20110251135A1, “INHIBITORS OF PERITONEAL SEEDING OF CANCER CELLS” (University of Utah Research Foundation, priority 2008, published 2011).

What was measured:
JNK/SAPK and p38 = conditions: Pierce et al., J Biol Chem 272:21096-103, 1997; cited from earlier work
NF-κB = NF-κB electrophoretic mobility shift assay (EMSA), nuclear lysates of treated HT-29 cells; assay type: cell-based, human; conditions: 10 μM, 3 and 6 hour incubations
HT-29 cells = test: Soft agar colony formation assay; assay type: cell-based, human; conditions: 10 μM for 6 days
Method: (§1) DLD-1, HCT-116, and HT-29 cells were cultured for 6 days in soft agar in the presence of DMSO (control), 10 μM BAY 11-7082, or 10 μM BAY 11-7085. The data points represent the means of colony counts per field (20×) performed in 5 different regions of the culture dishes. The data shown represent a typical result of two separate experiments. FIG. 2B and FIG. 2C are graphs that show athymic mice received subcutaneous injections of HT-29 (FIG. B) or HCT-116 (FIG. C) cells, followed by […] of BAY 11-7085 (dark bars) or DMSO (white bars) intraperitoneally twice weekly. The bars represent the 25-75% ranges of the tumor volumes and the horizontal lines in the bars are the medians. Using the Kruskal-Wallace statistical test to compare the median tumor volumes between BAY 11-7085 and DMSO yielded a p-value of 0.005 for HT-29 cells but >0.05 for HCT-116 cells.
(§2) Anchorage-independent cell growth is a hallmark of cancer cells and is a good correlation to tumorigencity in vivo. Therefore, the effects of BAY 11-7082 and BAY 11-7085 were examined on colon cancer cell growth using the soft agar colony formation assay.

DLD-1 cells = test: Soft agar colony formation assay; assay type: cell-based, human; conditions: 10 μM for 6 days
Method: as §1, §2

HCT-116 cells = test: Soft agar colony formation assay; assay type: cell-based, human; conditions: 10 μM for 6 days
Method: as §1, §2

HT-29 xenografts = test: Subcutaneous colon cancer xenograft in athymic mice; assay type: in vivo, mouse; conditions: athymic mice; compound alone; cell line not given
Method: as §1
HT-29 and HCT-116 cells were harvested in 0.25% trypsin-PBS-EDTA, washed once in media and PBS, and resuspended in PBS at 1 million cells per 200 μL. One million cells were injected either subcutaneously in the backs or intraperitoneally in 5 week old female nu/nu athymic mice (Charles River Labs). For the mice with subcutaneous tumors, the tumors were allowed to establish themselves for 10 days after which they were randomized to BAY 11-7085 or DMSO. For the mice with intraperitoneal tumors, the mice received DMSO or BAY 11-7085 (5 mg/kg) 24 hours before the cancer cells were injected intraperitoneally. […] Subcutaneous tumor sizes were determined by measuring the length and width with calipers. These studies were approved by the University of Utah Institutional Review Board and Institutional Animal Care and Use Committee and performed in the Animal Resource Center. Mice were euthanized when they experienced a greater than 10% loss in body weight or if they appeared ill. Post-mortem examinations included sectioning of kidney, lung, and liver tissues which were stained with hematoxylin and eosin followed by examination for tissue toxicity/damage by an experienced mouse pathologist (E.J.E.) who was blinded to therapy.
HCT-116 and HT-29 cell lines were used to generate subcutaneous tumors in athymic female mice. The mice were subsequently randomized to be treated with vehicle (DMSO) alone or BAY 11-7085 […] twice weekly for 28 days.

[1] = system: DLD-1, HCT-116, HT-29 colon cancer cell lines; test: Cell proliferation assay (crystal violet, 96-well); assay type: cell-based, human
Method: (§3) The data points represent the means of triplicate experiments and the error bars the standard errors of the means. […] The percent of apoptotic cells was then determined by the annexin V assay. […] The results shown are typical of two separate experiments. […] Immunoblots were performed for c-IAP-2, TRAF-1, TRAF-2, and FLIP. All lanes contain equal total protein.
For the cell proliferation assay, cells were dispersed and plated at 40,000 cells/well in 96-well dishes. At various days in culture, the cells were gently washed twice with 100 μL/well of ice-cold blocking buffer (1% radioimmunoassay grade BSA in PBS) and twice with 100 μL/well of ice-cold PBS. The cells were fixed for 10 min in 100% ice-cold methanol (100 μL/well), then allowed to air-dry. The cells were stained with 100 μL/well of 0.1% crystal violet in H20 for 10 minutes, then washed gently four times with dd H20 and four times with PBS. The plates were then air-dried completely. The stained cells were then solubilized in 1% sodium deoxycholate, and the plates read at 590 nm in a spectrophotometer. The absorption at 590 nm is proportional to the number of attached cells.

[2] = system: IκB phosphorylation and TNFα-induced NF-κB activation; conditions: Pierce et al., J Biol Chem 272:21096-103, 1997; cited from earlier work
adherent HT-29 cells = test: Annexin V-FITC apoptosis assay, adherent cells; assay type: cell-based, human
From the text: FIG. 3 is a group of graphs that show NF-κB inhibitors cause apoptosis of colon cancer cells. […] The data points represent the average percent of annexin V-positive, propidium iodide-negative cells (of the total cells counted) from triplicate experiments. The error bars represent the standard error of the means. […] The results shown are a graphic representation of individual flow cytometry results expressed as the percentage of cells that were annexin V-positive of those that excluded propidium iodide. […] An immunoblot of the lysates for cleaved PARP was performed. Each lane represents equal total protein concentrations. […] The cells were allowed to adhere to plastic dishes for 1 hour after which they were washed gently in PBS and stained with crystal violet. The crystal violet stained cells were solubilized in deoxycholate and the absorbance detected in a spectrophotometer at 590 nm. The adherent cells were expressed as a fraction of the controls. Each data point represents the average of triplicate experiments and the error bars the standard errors of the means.
as §3
(§4) Single cell suspensions were plated at 100,000 cells per well in 24-well plates in media containing DMSO, BAY 11-7082, BAY 11-7085, or MG-132 for 8-24 hours in an incubator. Alternatively, DMSO, BAY 11-7082, BAY 11-7085, or MG-132 were added to cells that were confluent and adherent for several days. The nonadherent cells were aspirated off with the media and spun for 3 minutes at 2,000 rpm in 15 mL polypropylene tubes. The adherent cells were washed twice with PBS, dispersed in trypsin, and spun down for 3 minutes at 2,000 rpm in 15 mL polypropylene tubes. The nonadherent and adherent cells were resuspended in 1× binding buffer (10 mM HEPES/NaOH, pH 7.4, 140 mM NaCl, and 2.5 mM CaCl2) to a final concentration of 10^6 cells/mL. 100 μL of the cell solution were transferred to a 5 mL culture tube and incubated with 5 μL of annexin V-FITC-conjugated monoclonal antibody (Pharmingen) and 10 μl, of propidium iodide (from a 50 μg/mL stock solution made in PBS) in the dark at 25° C. for 15 minutes. 400 μL of binding buffer was added to each tube and the cells were analyzed by flow cytometry immediately. The percent of apoptosis was determined as the percent of annexin V-positive, propidium iodide-negative cells of the total cells counted.

[3] = system: transiently suspended HT-29 cells; test: Apoptosis of transiently suspended cells during readhesion (annexin V assay); assay type: cell-based, human; conditions: for apoptosis of readhering HT-29 colon cancer cells: NF-κB inhibitors other than BAY 11-7085
Method: HT-29 cells that were either transiently suspended with trypsin-EDTA or adherent for three days, were treated at time zero with DMSO or 10-100 μM BAY 11-7085. The percent of apoptotic cells was determined using the annexin V flow cytometry assay and graphed versus the dose of BAY 11-7085. FIG. 4B are photographs showing DLD-1, FIG. 4C are photographs showing HCT-116, and FIG. 4D are photographs showing HT-29 cells that were transiently suspended in trypsin-EDTA and allowed to readhere to glass coverslips for 1-24 hours. The cells were fixed and immunostained with an NF-κB p65 subunit monoclonal antibody.
The transiently suspended cells were lysed and allowed to bind to DNA oligonucleotides, containing the NF-κB consensus binding site, that were immobilized to 96-well plates. NF-κB protein bound to the oligonucleotides was detected by an antibody to the p65 subunit that only recognized p65 that is bound to DNA. The positive control was HeLa cells that were stimulated with TNFα. A control was performed using excess free NF-κB oligonucleotides (Competitor). […] NF-κB binding activity was determined by the TransAM assay as in FIG. 5A. […] The data shown represent typical results of three separate experiments. […] An immunoblot for COX-2 was performed.
The percentage of apoptotic cells was determined using the annexin V assay. The data points represent the averages of three experiments; bars, +−.SE. E. DLD-1 and F. HT-29 cells were transduced with an adenovirus containing the IκB super-repressor construct. After 3 days, the cells were transiently suspended and allowed to readhere in the presence of subapoptotic concentrations of BAY 11-7085 or DMSO (vehicle) for 8 hours. The data are expressed as fractions of cells surviving compared with the controls (no adenovirus) and were quantitatively determined by staining the remaining adherent cells with crystal violet.
as §4
Various concentrations of BAY 11-7085 were added to HT-29 cells that were transiently suspended in trypsin-PBS for approximately 15 minutes before replating. The transiently suspended cells were quickly allowed to readhere in order to prevent anoikis. Alternatively, BAY 11-7085 was added to adherent HT-29 cell monolayers.

[4] = system: colon and pancreatic cancer cells; test: Apoptosis of colon and pancreatic cancer cells during readhesion; assay type: cell-based, human; conditions: not shown

Cc1ccc(S(=O)(=O)/C=C/C#N)cc1 [BAY 11-7082, (2E)-3-(tolylsulfonyl)-2-propenenitrile]
activation of JNK/SAPK and p38 (JNK/SAPK and p38): activate JNK/SAPK and p38
inhibition of NF-κB activity (EMSA) (NF-κB): more profound inhibition of NF-κB activity occurred with BAY 11-7085 than BAY 11-7082
anchorage-independent proliferation (HT-29 cells): significantly inhibited
anchorage-independent proliferation (DLD-1 cells): significantly inhibited
anchorage-independent proliferation (HCT-116 cells): but not HCT-116
colon cancer xenograft growth (HT-29 xenografts): inhibit colon cancer xenograft growth
cell proliferation ([1]; 10 μM, cultured up to 8 days): but not BAY 11-7082 greatly inhibited cell proliferation
IκB phosphorylation and TNFα-induced NF-κB activation [2]: inhibit IκB phosphorylation and TNFα-induced NF-κB activation
level of apoptosis (annexin V-positive, propidium iodide-negative cells) (adherent HT-29 cells; adherent HT-29, 24 hours, BAY compounds at doses up to 20, MG-132 20 μM): caused an increase in the level of apoptosis

S=C(S)N1CCCC1 [PDTC, pyrrolidine dithiocarbamate]
induction of apoptosis of HT-29 cells during readhesion ([3]; various concentrations, 4 hours, compared with BAY 11-7085): caused apoptosis of HT-29 cells during readhesion

CC(C)C[C@H](NC(=O)[C@H](Cc1ccccc1)NC(=O)c1cnccn1)B(O)O [bortezomib]
apoptosis of readhering HT-29 colon cancer cells [3]: failed to induce apoptosis
apoptosis of colon and pancreatic cancer cells during readhesion [4]: failed to induced apoptosis

infliximab
apoptosis of readhering HT-29 colon cancer cells [3]: failed to induce apoptosis
apoptosis of colon and pancreatic cancer cells during readhesion [4]: failed to induced apoptosis

cA2: antagonistic and chimeric TNFα monoclonal antibody, inhibits TNFα binding to TNFα receptors
colon cancer cell proliferation ([1]; cA2 at 10 and 50 μg/mL, after several days of treatment): caused a significant inhibition of colon cancer cell proliferation
effect of cA2 pretreatment on BAY 11-7085-induced apoptosis (adherent HT-29 cells; HT-29, 50 μg/mL cA2 for 48 hours, then 20 μM BAY 11-7085 for 24 hours): did not diminish BAY 11-7085-induced apoptosis
